The source of these data is patent US20130310352A1, “DEXAMETHASONE COMBINATION THERAPY” (priority 2010, published 2013).

Data set [1] deals with MM cell lines ARP1, MM.1S and MM.1R. Description: Apoptosis in coculture with BMSCs. The data set is classed as cell-based, human. The conditions noted are these: 10 μM compound A, 24 hours, BMSC coculture. The protocol:
For this purpose, BMSCs isolated from MM patient were cocultured with MM cell lines ARP1, MM.1S and MM.1R. The cells were treated with or without 10 μM of compound A for 24 hours. As a positive control, MM.1S cells were cocultured with or without BMSC and treated with or without 40 μg/ml of dexamethasone for 24 hours. After treatment, the MM cells were identified as CD138+ cells by APC-CD138 staining.
MM cell lines ARP1, MM.1S and MM.1R were cultured with 10 μM compound A for 3 days. rhIL-6 were added to final concentration of 5 ng/ml. As a positive control, MM.1S cells were treated with 40 μg/ml dexamethasone in the presence of 5 ng/ml of rhIL6 for the same time. Cells apoptosis rate was measured by annexin V staining. (B). Same MM cells were co-cultured with or without MM BMSC, and treated with 10 μM of compound A for 1 day. As a positive control, MM.1S cells were cocultured with or without BMSC and treated with 40 μg/ml dexamethasone for 1 day. CD138+ MM cells apoptosis rate was measured by Annexin V staining.

Data set [2] concerns ARP1 cells. Description: Established MM model in SCID mice. Particulars: 5 μmol per kg per day intraperitoneal, versus PBS control. The data set is classed as in vivo. As for the experimental part: Six to eight week old female SCID mice were housed and monitored in MD. Anderson Cancer Center animal research facility. All experimental procedures and protocols had been approved by the Institutional Animal Care and Use Committee at The University of Texas M.D. Anderson Cancer Center. SCID mice were subcutaneously inoculated in the right flank with 1 million ARP1 cells suspended in 50 μl PBS. After palpable tumor developed (tumor diameters ≧5 mm), mice were treated with daily intraperitoneal injection of PBS or compound A (5 μmol per kg per day). Tumor sizes were measured every 5 days, and blood samples were collected with the same period. Tumor burdens were evaluated by measuring tumor size and detecting circulating human kappa chain.
Levels of human kappa chain in mice serum were measured by a quantitative ELISA (Bethyl Laboratories Inc) followed the vendor's protocol.
To examine compound A anti-MM effects in vivo, human MM model in SCID mice were established as described in Materials and Methods. When palpable tumors developed (≧5 mm diameters), mice (10 per group) received intraperitoneal injection of compound A (5 μmol per kg per day) or vehicle control PBS daily.
SCID mice were inoculated subcutaneously in the right flank with 1×10^6 ARP1 cells. Three to 4 weeks later when palpable tumors (≧5 mm in diameter) developed, mice (10 per group) were treated with intraperitoneal injections of PBS or compound A (100 nmol per mouse per day) daily. Tumor burdens were measured as (A) tumor volumes and (B) levels of circulating human kappa china in SCID mice sera detected by ELSA, and (C) survival of tumor-bearing mice.

Data set [3] relates to PI3K-Akt-mTOR pathway in MM cells. Description: Immunoblotting, PI3K-Akt-mTOR pathway. The data set is classed as cell-based, human. As for the experimental part:
(§1) MM cell lines ARP1, ARK, MM.1S, MM.1R and U266 were maintained in RPMI-1640 medium supplemented with 10% fetal bovine serum, 100 U/ml penicillin and 100 μg/ml streptomycin at 37° C. and 5% CO2 Primary MM cells and MM BMSCs were isolated from bone marrow aspirates of myeloma patients. PBMCs were obtained from healthy volunteers. The study was approved by the Institutional Review Board at The University of Texas M.D. Anderson Cancer Center. Anti-caspase-3, caspase-9, PARP, Bim, XIAP, cyclin D1, pp 70S6K (Thr389) and p27(Kip1) antibodies were purchased from Cell Signaling. Anti-bcl-2, Bc1-XL, Akt, pAkt (Thr 308), pAkt (Ser 473), p70S6K and β-actin antibodies were purchased from Santa Cruz. Compound A was dissolved in DMSO at 10 mM as stock solution. Dexamethasone and Propidium iodide (PI) were purchased from Sigma-Aldrich. Recombinant human IL6 was purchased from R&D Systems. FITC conjugated Annexin V was obtained from Invitrogen.
To further analyze the signaling pathways that were affected by compound A exposure in MM cells, immunoblotting was extended to other cell signaling molecules. First, the inhibitory effect of compound A on PI3K-Akt-mTOR pathway in MM cells was tested. […] This is probably because of increased apoptotic cells after compound A treatment. […] Such findings indicate that compound A inhibits PI3K-Akt-mTOR pathways in MM cells.
(A). […] Compound A induced activation and cleavage of caspase-3, caspase-9 and PARP is shown. (B). Same MM cells treated with 10 μM compound A were lysed for western blotting. (C) RP1 cells were treated with 10 μM compound A for 1, 6, 12 and 24 hours.

The subject of the next data set is U266. The experiment in a line: Annexin V apoptosis assay. The data set is classed as cell-based, human. As for the experimental part:
Apoptotic cells were determined as Annexin V positive cells. […] Compound A induced MM cells apoptosis were measured as described in Materials and Methods.

Data set [4] deals with ARP1 cells. Description: Cell cycle analysis (PI, flow cytometry). Particulars: ARP1, 1 μM, 24 hours. The data set is classed as cell-based, human. As for the experimental part:
MM cell lines ARP1, MM.1S and MM.1R were cultured with or without 1 μM compound A for 24 hours. Then, cells were harvested and permeabilized in 70% ethanol at 4° C. for overnight, and incubated with 50 μg/ml PI and 20 μg/ml RNase A for 15 min. DNA content was analyzed by flow cytometry and FlowJo software.
To study the mechanism of compound A induced MM cells growth inhibition and apoptosis, it was examined whether compound A treatment affects MM cell cycle.
(A). Representative histogram of ARP1 treated with 1 μM compound A for 1 day. (B). […] Cell cycle was tested as described.
A general note: In flow cytometry, cells or beads pass a laser one at a time.

Data set [5] deals with normal PBMCs from healthy volunteers. Description: Apoptosis of normal PBMCs. The data set is classed as cell-based, human. The conditions noted are these: 24 hours. The protocol:
as §1
Apoptotic cells were determined as Annexin V positive cells.
To examine whether compound A induces normal PBMCs apoptosis, normal PBMCs from different healthy volunteers were incubated with 0 to 1 mM compound A for 24 hours. Cells apoptosis rate were measured as described above. […] Thus, these findings indicate that compound A has low cytotoxicity toward resting PBMCs.
(A). Five MM cell lines ARP1, ARK, MM.1S, MM.1R and U266 were cultured in the presence of 0 to 1 mM compound A. Cells were harvested after 1 day or 3 days of treatment. Compound A induced MM cell apoptosis were measured by Annexin V staining as described in Materials and Methods. (B). Same MM cell lines were treated with 0 to 1 mM compound A for 1 or 3 days. Cell growths were assessed by MTS assay. (C). Representative histograms of primary MM cells treated with compound A. (D). Data from 3 patients showing a dose-dependent induction of apoptosis in freshly isolated primary MM cells. Cells were treated with different doses of compound A for 1 day. (E). PBMCs isolated from 3 healthy volunteers were treated with compound A for 1 day.

Regarding `Nc1cc(C(F)(F)F)c(-c2cc(N3CCOCC3)nc(N3CCOCC3)n2)cn1` [compound A, 5-(2,6-di-morpholin-4-yl-pyrimidin-4-yl)-4-trifluoromethyl-pyridin-2-ylamine], the “effect of BMSCs on compound A induced MM cell apoptosis” value in data set [1] is on record as “did not protect”. Besides, the “survival of tumor-bearing mice” value in the data set on ARP1 cells [2] is “significantly prolonged”. Moreover, in the data set on ARP1 cells [2] (P<0.05), the “tumor burden measured by tumor volume” value is reported as “significantly smaller tumor burdens”. Moreover, the “tumor burden measured by level of circulating human kappa chain” value in the data set on ARP1 cells [2] (P<0.05, ELISA) is “significantly smaller tumor burdens”. The “p-Akt at Ser473 and Thr308” value in data set [3] (10 μM compound A) is recorded as “down-regulated”. In addition, in data set [3] (ARP1 and MM.1R cells, 10 μM), the “total Akt levels” value is on record as “decreased”. In data set [3] (tested MM cell lines, 10 μM), the p-P70S6K levels entry is “decreased” and the “total P70S6K expression” value is “remained constant”. The “sensitivity to compound A induced apoptosis compared to other MM cell lines” value in the data set with U266 is recorded as “less sensitive”. In the data set on ARP1 cells [4], the G1 phase cells result was “increased” and the S phase cells entry is reported as “decreased”. Besides, the “toxicity toward normal PBMCs” value in data set [5] (0 to 1 mM) is given as “comparably low toxicity”. In data set [5] (10 μM), the PBMC apoptosis result is on record as “less than 40%”. For the same compound, the PBMC apoptosis entry in data set [5] (100 μM) is “less than 40%”.
